In this assay the target is T1, human transferrin (hTf) (Homo sapiens, UniProt P02787).
T1 construct: gene TF
In words: intrinsic fluorescence quenching, modified Stern-Volmer. The assay is classed as binding. Particulars: pH 7.4, 50 mM sodium phosphate, 301 K, 4 uM hTf, excitation 280 nm, n = 0.99; double-log. An excerpt:
intrinsic fluorescence quenching, modified Stern-Volmer on human transferrin (hTf)

Counter-ions that a name gives are not always drawn.

T1 sequence (P02787 20-698): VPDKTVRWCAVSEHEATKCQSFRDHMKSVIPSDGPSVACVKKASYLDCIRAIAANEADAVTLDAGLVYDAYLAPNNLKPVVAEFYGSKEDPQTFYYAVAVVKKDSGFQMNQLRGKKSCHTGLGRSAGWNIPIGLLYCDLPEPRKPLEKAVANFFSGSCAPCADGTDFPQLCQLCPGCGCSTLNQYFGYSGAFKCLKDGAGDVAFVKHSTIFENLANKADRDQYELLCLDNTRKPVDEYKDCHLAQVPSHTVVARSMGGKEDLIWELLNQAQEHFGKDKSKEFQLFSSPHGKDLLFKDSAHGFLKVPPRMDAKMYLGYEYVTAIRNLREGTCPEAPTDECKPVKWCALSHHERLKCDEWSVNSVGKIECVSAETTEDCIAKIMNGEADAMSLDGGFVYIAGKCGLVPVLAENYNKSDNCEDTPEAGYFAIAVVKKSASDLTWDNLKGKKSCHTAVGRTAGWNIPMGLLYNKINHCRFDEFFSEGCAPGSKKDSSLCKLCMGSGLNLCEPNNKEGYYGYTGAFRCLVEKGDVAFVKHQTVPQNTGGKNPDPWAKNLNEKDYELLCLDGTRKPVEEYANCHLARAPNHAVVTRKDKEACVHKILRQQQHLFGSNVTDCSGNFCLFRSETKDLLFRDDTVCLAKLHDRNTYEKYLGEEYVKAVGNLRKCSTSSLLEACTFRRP

In the case of `CCN(C)C(=O)Oc1cccc([C@H](C)N(C)C)c1` [Rivastigmine tartrate], the “K (10^4 M^-1)” value is 5.3 10^4 M^-1.

Source of the values: PMC6770857, “Unraveling Binding Mechanism of Alzheimer’s Drug Rivastigmine Tartrate with Human Transferrin: Molecular Docking and Multi-Spectroscopic Approach towards Neurodegenerative Diseases” (Biomolecules, 2019).
